Assay results as given in ChEMBL document CHEMBL1142909, “Synthesis and insecticidal activity of chromanone and chromone analogues of diacylhydrazines” (2007).

How the values were obtained:
Assay type in all cases: functional
Tetranychus cinnabarinus = assay: Insecticidal activity against Tetranychus cinnabarinus at 250 mg/L relative to control
Aphis = assay: Insecticidal activity against Aphis medicagini at 250 mg/L relative to control
Mythimna separata = assay: Insecticidal activity against Mythimna separata at 500 mg/L relative to control
Nilaparvata lugens = assay: Insecticidal activity against Nilaparvata lugens at 500 mg/L relative to control

Q: Which results are given for `CC1(C)CC(=O)c2cc(C(=O)NN(C(=O)c3ccccc3Cl)C(C)(C)C)ccc2O1`?
A: Activity (Tetranychus cinnabarinus): 58.3%; Activity (Aphis): 8%; Activity (Mythimna separata): 66.7%; Activity (Nilaparvata lugens): 0%

Q: Which Activity (Tetranychus cinnabarinus) does the source give for `Cc1cccc(C(=O)NN(C(=O)c2coc3ccc(Cl)cc3c2=O)C(C)(C)C)c1` here?
A: Its Activity is 0%.

Q: And the Activity (Aphis)?
A: The Activity was 6%.

Q: What about the Activity (Mythimna separata) of the same molecule?
A: Its Activity is 26.7%.

Q: What about the Activity (Nilaparvata lugens) of the same molecule?
A: Its Activity is 7.1%.

Q: `Cc1cc(C)cc(C(=O)N(NC(=O)c2ccc3c(c2)C(=O)CC(C)(C)O3)C(C)(C)C)c1` was tested. Which Activity (Tetranychus cinnabarinus) did it give?
A: The Activity was 66.7%.

Q: And the Activity (Aphis)?
A: The Activity was 8%.

Q: What about the Activity (Mythimna separata) of the same molecule?
A: The Activity was 100%.

Q: And the Activity (Nilaparvata lugens)?
A: The Activity was 7.1%.

Q: Which results are given for `Cc1ccccc1C(=O)N(NC(=O)c1ccc2c(c1)C(=O)CC(C)(C)O2)C(C)(C)C`?
A: Activity (Tetranychus cinnabarinus): 0%; Activity (Aphis): 0%; Activity (Mythimna separata): 40%; Activity (Nilaparvata lugens): 3.4%

Q: How did the Activity (Tetranychus cinnabarinus) turn out when `CC(C)(C)N(NC(=O)c1cccc(Cl)c1)C(=O)c1coc2ccccc2c1=O` was run?
A: The Activity was 0%.

Q: What about the Activity (Aphis) of the same molecule?
A: Its Activity is 4%.

Q: And the Activity (Mythimna separata)?
A: The Activity was 20%.

Q: What about the Activity (Nilaparvata lugens) of the same molecule?
A: The Activity was 0%.

Q: `CC(C)(C)N(NC(=O)c1ccccc1)C(=O)c1coc2ccccc2c1=O` was tested. Which Activity (Tetranychus cinnabarinus) did it give?
A: The Activity was 0%.

Q: And the Activity (Aphis)?
A: Its Activity is 21.1%.

Q: What about the Activity (Mythimna separata) of the same molecule?
A: The Activity was 0%.

Q: What about the Activity (Nilaparvata lugens) of the same molecule?
A: The Activity was 7.1%.

Q: Which Activity (Tetranychus cinnabarinus) does the source give for `CC1(C)CC(=O)c2cc(C(=O)NN(C(=O)c3ccccc3)C(C)(C)C)ccc2O1` here?
A: The Activity was 0%.

Q: What about the Activity (Aphis) of the same molecule?
A: Its Activity is 8%.

Q: What about the Activity (Mythimna separata) of the same molecule?
A: The Activity was 80%.

Q: And the Activity (Nilaparvata lugens)?
A: The Activity was 0%.

Q: Which results are given for `Cc1ccc2occ(C(=O)N(NC(=O)c3ccccc3)C(C)(C)C)c(=O)c2c1`?
A: Activity (Tetranychus cinnabarinus): 51.7%; Activity (Aphis): 0%; Activity (Mythimna separata): 60%; Activity (Nilaparvata lugens): 0%

Q: How did the Activity (Tetranychus cinnabarinus) turn out when `CC(C)(C)N(NC(=O)c1cccc(Cl)c1)C(=O)c1coc2ccc(Cl)cc2c1=O` was run?
A: The Activity was 0%.

Q: And the Activity (Aphis)?
A: Its Activity is 16%.

Q: And the Activity (Mythimna separata)?
A: The Activity was 73.3%.

Q: What about the Activity (Nilaparvata lugens) of the same molecule?
A: Its Activity is 0%.

Q: `CC1(C)CC(=O)c2cc(C(=O)NN(C(=O)c3cccc(Cl)c3)C(C)(C)C)ccc2O1` was tested. Which Activity (Tetranychus cinnabarinus) did it give?
A: The Activity was 0%.

Q: What about the Activity (Aphis) of the same molecule?
A: The Activity was 0%.

Q: What about the Activity (Mythimna separata) of the same molecule?
A: Its Activity is 13.3%.

Q: What about the Activity (Nilaparvata lugens) of the same molecule?
A: The Activity was 0%.

Q: What does the source list for `CC(C)(C)N(NC(=O)c1ccc(Cl)cc1)C(=O)c1coc2ccccc2c1=O`?
A: Activity (Tetranychus cinnabarinus): 0%; Activity (Aphis): 2%; Activity (Mythimna separata): 66.7%; Activity (Nilaparvata lugens): 0%

Q: What does the source list for `CC1(C)CC(=O)c2cc(C(=O)NN(C(=O)c3ccc(Br)cc3)C(C)(C)C)ccc2O1`?
A: Activity (Tetranychus cinnabarinus): 0%; Activity (Aphis): 4%; Activity (Mythimna separata): 6.7%; Activity (Nilaparvata lugens): 0%

Q: For `CC(C)(C)N(NC(=O)c1ccccc1)C(=O)c1coc2ccc(Cl)cc2c1=O`, which Activity (Tetranychus cinnabarinus) is on record?
A: Its Activity is 0%.

Q: What about the Activity (Aphis) of the same molecule?
A: The Activity was 0%.

Q: And the Activity (Mythimna separata)?
A: Its Activity is 58.3%.

Q: What about the Activity (Nilaparvata lugens) of the same molecule?
A: Its Activity is 18.2%.

Q: What does the source list for `Cc1ccc2occ(C(=O)N(NC(=O)c3cccc(Cl)c3)C(C)(C)C)c(=O)c2c1`?
A: Activity (Tetranychus cinnabarinus): 0%; Activity (Aphis): 0%; Activity (Mythimna separata): 26.7%; Activity (Nilaparvata lugens): 3.4%

Q: With `CC1(C)CC(=O)c2cc(C(=O)NN(C(=O)c3ccc(Cl)cc3)C(C)(C)C)ccc2O1` as the molecule, how does the Activity (Tetranychus cinnabarinus) read?
A: The Activity was 0%.

Q: What about the Activity (Aphis) of the same molecule?
A: Its Activity is 4.2%.

Q: And the Activity (Mythimna separata)?
A: The Activity was 84.2%.

Q: And the Activity (Nilaparvata lugens)?
A: The Activity was 0%.

Q: With `CC1(C)CC(=O)c2cc(C(=O)NN(C(=O)c3ccc(F)cc3)C(C)(C)C)ccc2O1` as the molecule, how does the Activity (Tetranychus cinnabarinus) read?
A: The Activity was 0%.

Q: What about the Activity (Aphis) of the same molecule?
A: The Activity was 4%.

Q: What about the Activity (Mythimna separata) of the same molecule?
A: Its Activity is 0%.

Q: And the Activity (Nilaparvata lugens)?
A: The Activity was 0%.

Q: For `CC1(C)CC(=O)c2cc(C(=O)NN(C(=O)c3ccccc3F)C(C)(C)C)ccc2O1`, which Activity (Tetranychus cinnabarinus) is on record?
A: The Activity was 76.7%.

Q: And the Activity (Aphis)?
A: The Activity was 4%.

Q: What about the Activity (Mythimna separata) of the same molecule?
A: Its Activity is 0%.

Q: What about the Activity (Nilaparvata lugens) of the same molecule?
A: Its Activity is 3.4%.
